Measurements from article PMC5896373 (Molecular Pharmacology, 2018).
Changes are numbered by the printed parent chain.

Experiments:
Format in all cases: cell-based
[1] = molecular target: T1, chimeric P2X7/1 receptor 295–310 (Homo sapiens, UniProt Q99572, E305N/I21V/I310F/K297R/K300V/K306Y/M24R/N16P/N25R/N303G/Q22R/R20V/S23N/T19I/T308H/V304T/Y26L/Y295F/Y298H/Y299F); assay: cell-based
T1 construct: expressed in transfected cells; host or cells: Xenopus laevis oocytes (cRNA injection)
Procedure: (§1) Additional point mutants were made using the QuikChange mutagenesis kit (Stratagene California, La Jolla, CA). The production of the correct mutations and absence of coding errors was determined by DNA sequencing (Automated ABI Sequencing Service, University of Leicester, UK). cRNA was generated for the mutants and 50 nl (50 ng) was injected into manually defoliculated stage V Xenopus laevis oocytes using an Inject+Matic microinjector (J.A. Gabay, Inject+Matic, Geneva, Switzerland). Injected oocytes were stored at 16°C in ND96 buffer [in millimolar concentrations, NaCl 96, KCl 2, CaCl2 1.8, MgCl2 1, sodium pyruvate 5, and HEPES 5 (pH 7.6) supplemented with 50 μg/ml gentamycin and 50 μg/ml tetracycline]. Three to seven days postinjection two-electrode voltage clamp recordings were made from oocytes bathed in divalent-free ND96 buffer (in millimolar concentrations, NaCl 96, KCl 2, sodium pyruvate 5, HEPES 5, and 0.1 flufenamic acid, pH 7.6). Oocytes were voltage clamped at a holding potential of −60 mV with a GeneClamp500B amplifier (Molecular Devices).
(§2) Inhibition by the antagonists was expressed as the percentage of the peak current amplitude of an EC90 concentration of ATP recorded before the application of antagonist (ATP gave reproducible responses to ATP in the absence of antagonist). Inhibition curves were fitted with the Hill equation (variable slope) using GraphPad Prism 6 (GraphPad Software, San Diego, CA). […] Individual concentration-response curves were generated for individual experiments, and statistical analysis was carried out on the data generated. […] Data are shown as mean ± S.E.M. In all cases n ≥ 3 for all data points.

[2] = molecular target: T2, chimeric P2X7/1 receptor 210–217 (Homo sapiens, UniProt Q99572, G211E/I214K/I21V/INS213AAHM/L212V/M24R/N16P/N25R/P210E/Q22R/R20V/S23N/T19I/T217L/Y26L); assay: Two-electrode voltage clamp of ATP-evoked currents in Xenopus oocytes
T2 construct: expressed in transfected cells; host or cells: Xenopus laevis oocytes (cRNA injection)
T2 sequence (Q99572 with tags, fused parts or gaps N16P/T19I/R20V/I21V/Q22R/S23N/M24R/N25R/Y26L/P210E/G211E/L212V/INS213AAHM/I214K/T217L): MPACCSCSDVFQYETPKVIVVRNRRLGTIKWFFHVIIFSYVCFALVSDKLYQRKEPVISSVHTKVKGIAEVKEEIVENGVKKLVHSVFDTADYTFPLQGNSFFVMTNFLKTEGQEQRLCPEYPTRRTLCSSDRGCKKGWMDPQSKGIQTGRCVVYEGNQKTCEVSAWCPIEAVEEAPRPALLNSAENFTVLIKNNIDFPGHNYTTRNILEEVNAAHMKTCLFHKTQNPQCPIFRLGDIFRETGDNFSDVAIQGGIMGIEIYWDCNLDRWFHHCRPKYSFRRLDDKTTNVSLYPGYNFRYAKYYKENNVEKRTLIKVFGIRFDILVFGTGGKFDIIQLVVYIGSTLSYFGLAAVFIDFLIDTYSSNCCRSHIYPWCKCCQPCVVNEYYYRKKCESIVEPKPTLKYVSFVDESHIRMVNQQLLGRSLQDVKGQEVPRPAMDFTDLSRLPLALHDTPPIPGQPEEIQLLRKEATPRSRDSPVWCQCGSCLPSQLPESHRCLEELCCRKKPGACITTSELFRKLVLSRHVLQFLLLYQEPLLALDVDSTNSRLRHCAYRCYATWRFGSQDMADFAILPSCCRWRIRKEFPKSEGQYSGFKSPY
Procedure: The production of the correct mutations and absence of coding errors was determined by DNA sequencing (Automated ABI Sequencing Service, University of Leicester, UK). cRNA was generated for the mutants and 50 nl (50 ng) was injected into manually defoliculated stage V Xenopus laevis oocytes using an Inject+Matic microinjector (J.A. Gabay, Inject+Matic, Geneva, Switzerland). Injected oocytes were stored at 16°C in ND96 buffer [in millimolar concentrations, NaCl 96, KCl 2, CaCl2 1.8, MgCl2 1, sodium pyruvate 5, and HEPES 5 (pH 7.6) supplemented with 50 μg/ml gentamycin and 50 μg/ml tetracycline]. Three to seven days postinjection two-electrode voltage clamp recordings were made from oocytes bathed in divalent-free ND96 buffer (in millimolar concentrations, NaCl 96, KCl 2, sodium pyruvate 5, HEPES 5, and 0.1 flufenamic acid, pH 7.6). Oocytes were voltage clamped at a holding potential of −60 mV with a GeneClamp500B amplifier (Molecular Devices).
as §2

P2X7R point mutant K306C = molecular target: T3, P2X7R point mutant K306C (Homo sapiens, UniProt Q99572, I21V/K306C/M24R/N16P/N25R/Q22R/R20V/S23N/T19I/Y26L); assay: as above; details: EC90 ATP, mean ± S.E.M.
T3 construct: expressed in transfected cells; host or cells: Xenopus laevis oocytes (cRNA injection)
Procedure: (§3) Injected oocytes were stored at 16°C in ND96 buffer [in millimolar concentrations, NaCl 96, KCl 2, CaCl2 1.8, MgCl2 1, sodium pyruvate 5, and HEPES 5 (pH 7.6) supplemented with 50 μg/ml gentamycin and 50 μg/ml tetracycline]. Three to seven days postinjection two-electrode voltage clamp recordings were made from oocytes bathed in divalent-free ND96 buffer (in millimolar concentrations, NaCl 96, KCl 2, sodium pyruvate 5, HEPES 5, and 0.1 flufenamic acid, pH 7.6). Oocytes were voltage clamped at a holding potential of −60 mV with a GeneClamp500B amplifier (Molecular Devices).
as §2

[3] = molecular target: T4, chimeric P2X7/1 receptor 112–118 (Homo sapiens, UniProt Q99572, E112P/E115T/G113K/I21V/L118Y/M24R/N16P/N25R/Q22R/R117G/R20V/S23N/T19I/Y26L); assay: cell-based
T4 construct: expressed in transfected cells; host or cells: Xenopus laevis oocytes (cRNA injection)
Procedure: as §1, §2

[4] = molecular target: T5, chimeric P2X7/1 receptor 81–88 (Homo sapiens, UniProt Q99572, F88W/H85P/I21V/K81P/K82G/M24R/N16P/N25R/Q22R/R20V/S23N/S86Q/T19I/V84G/Y26L); assay: Two-electrode voltage clamp of ATP-evoked currents in Xenopus oocytes
T5 construct: expressed in transfected cells; host or cells: Xenopus laevis oocytes (cRNA injection)
T5 sequence (Q99572 1-595 N16P/T19I/R20V/I21V/Q22R/S23N/M24R/N25R/Y26L/K81P/K82G/V84G/H85P/S86Q/F88W): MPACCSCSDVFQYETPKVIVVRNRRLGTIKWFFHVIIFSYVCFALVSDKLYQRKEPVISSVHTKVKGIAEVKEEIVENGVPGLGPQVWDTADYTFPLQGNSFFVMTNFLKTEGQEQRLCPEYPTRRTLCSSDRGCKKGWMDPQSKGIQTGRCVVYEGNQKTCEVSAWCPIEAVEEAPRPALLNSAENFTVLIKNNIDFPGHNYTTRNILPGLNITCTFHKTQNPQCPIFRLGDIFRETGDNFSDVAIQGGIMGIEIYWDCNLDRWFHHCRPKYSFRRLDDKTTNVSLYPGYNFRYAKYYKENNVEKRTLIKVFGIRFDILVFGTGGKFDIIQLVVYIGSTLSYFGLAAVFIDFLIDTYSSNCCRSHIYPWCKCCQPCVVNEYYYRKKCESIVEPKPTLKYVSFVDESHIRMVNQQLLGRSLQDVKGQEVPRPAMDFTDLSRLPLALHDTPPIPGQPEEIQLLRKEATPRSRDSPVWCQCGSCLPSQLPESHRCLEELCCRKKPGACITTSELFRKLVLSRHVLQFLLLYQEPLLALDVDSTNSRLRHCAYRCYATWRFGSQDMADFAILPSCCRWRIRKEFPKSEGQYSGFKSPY
Procedure: as §1, §2

P2X7R point mutant S86A = molecular target: T6, P2X7R point mutant S86A (Homo sapiens, UniProt Q99572, I21V/M24R/N16P/N25R/Q22R/R20V/S23N/S86A/T19I/Y26L); assay: as above; details: EC90 ATP, mean ± S.E.M.
T6 construct: expressed in transfected cells; host or cells: Xenopus laevis oocytes (cRNA injection)
Procedure: as §1
Inhibition by the antagonists was expressed as the percentage of the peak current amplitude of an EC90 concentration of ATP recorded before the application of antagonist (ATP gave reproducible responses to ATP in the absence of antagonist). […]

P2X7R point mutant D92A = molecular target: T7, P2X7R point mutant D92A (Homo sapiens, UniProt Q99572, D92A/I21V/M24R/N16P/N25R/Q22R/R20V/S23N/T19I/Y26L); assay: as above; details: EC90 ATP, mean ± S.E.M.
T7 construct: expressed in transfected cells; host or cells: Xenopus laevis oocytes (cRNA injection)
Procedure: as §3, §2

P2X7R point mutant K110Y = molecular target: T8, P2X7R point mutant K110Y (Homo sapiens, UniProt Q99572, I21V/K110Y/M24R/N16P/N25R/Q22R/R20V/S23N/T19I/Y26L); assay: as above
T8 construct: expressed in transfected cells; host or cells: Xenopus laevis oocytes (cRNA injection)
T8 sequence (Q99572 1-595 N16P/T19I/R20V/I21V/Q22R/S23N/M24R/N25R/Y26L/K110Y): T5 sequence (Q99572 1-595 N16P/T19I/R20V/I21V/Q22R/S23N/M24R/N25R/Y26L/K81P/K82G/V84G/H85P/S86Q/F88W) with P81K, G82K, G84V, P85H, Q86S, W88F, K110Y
Procedure: as §1, §2

T4 sequence (Q99572 whole entry N16P/T19I/R20V/I21V/Q22R/S23N/M24R/N25R/Y26L/E112P/G113K/E115T/R117G/L118Y): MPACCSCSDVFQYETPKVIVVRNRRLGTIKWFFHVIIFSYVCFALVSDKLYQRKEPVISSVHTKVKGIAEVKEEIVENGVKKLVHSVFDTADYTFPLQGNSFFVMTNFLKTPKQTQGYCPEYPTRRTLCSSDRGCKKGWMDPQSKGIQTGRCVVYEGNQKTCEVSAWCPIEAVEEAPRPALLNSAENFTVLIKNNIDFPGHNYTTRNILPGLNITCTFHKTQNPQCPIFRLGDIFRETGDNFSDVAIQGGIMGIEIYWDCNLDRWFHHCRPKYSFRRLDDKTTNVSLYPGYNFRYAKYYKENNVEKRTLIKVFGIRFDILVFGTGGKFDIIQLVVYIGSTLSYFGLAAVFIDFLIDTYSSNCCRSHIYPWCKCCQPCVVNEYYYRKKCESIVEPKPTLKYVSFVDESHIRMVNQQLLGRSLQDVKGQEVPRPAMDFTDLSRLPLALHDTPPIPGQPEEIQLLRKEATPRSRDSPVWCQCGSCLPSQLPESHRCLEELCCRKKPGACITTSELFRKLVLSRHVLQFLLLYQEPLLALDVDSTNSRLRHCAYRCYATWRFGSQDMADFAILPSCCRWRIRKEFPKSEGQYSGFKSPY
T3 sequence (Q99572 whole entry N16P/T19I/R20V/I21V/Q22R/S23N/M24R/N25R/Y26L/K306C): as the sequence (Q99572 whole entry N16P/T19I/R20V/I21V/Q22R/S23N/M24R/N25R/Y26L/E112P/G113K/E115T/R117G/L118Y) above, with P112E, K113G, T115E, G117R, Y118L, K306C counted along it
T1 sequence (Q99572 1-595 with the stated changes): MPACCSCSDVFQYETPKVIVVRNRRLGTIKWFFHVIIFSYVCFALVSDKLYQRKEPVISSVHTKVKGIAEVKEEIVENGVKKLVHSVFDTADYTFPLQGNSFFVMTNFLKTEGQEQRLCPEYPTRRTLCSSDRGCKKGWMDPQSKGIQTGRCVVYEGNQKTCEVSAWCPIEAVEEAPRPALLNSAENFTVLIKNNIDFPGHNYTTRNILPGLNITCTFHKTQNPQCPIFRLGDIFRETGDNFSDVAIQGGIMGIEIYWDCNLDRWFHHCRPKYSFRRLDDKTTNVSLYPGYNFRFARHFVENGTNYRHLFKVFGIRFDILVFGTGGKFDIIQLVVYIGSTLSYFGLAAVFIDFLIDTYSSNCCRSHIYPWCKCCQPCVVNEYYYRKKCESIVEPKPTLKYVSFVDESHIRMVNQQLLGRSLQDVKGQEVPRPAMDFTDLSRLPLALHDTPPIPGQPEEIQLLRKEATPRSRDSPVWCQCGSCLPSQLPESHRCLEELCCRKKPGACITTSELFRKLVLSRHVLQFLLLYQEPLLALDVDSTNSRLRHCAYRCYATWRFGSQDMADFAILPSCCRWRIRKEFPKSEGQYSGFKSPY
T7 sequence (Q99572 whole entry N16P/T19I/R20V/I21V/Q22R/S23N/M24R/N25R/Y26L/D92A): as the sequence (Q99572 whole entry N16P/T19I/R20V/I21V/Q22R/S23N/M24R/N25R/Y26L/E112P/G113K/E115T/R117G/L118Y) above, with D92A, P112E, K113G, T115E, G117R, Y118L counted along it
T6 sequence (Q99572 whole entry N16P/T19I/R20V/I21V/Q22R/S23N/M24R/N25R/Y26L/S86A): as the sequence (Q99572 whole entry N16P/T19I/R20V/I21V/Q22R/S23N/M24R/N25R/Y26L/E112P/G113K/E115T/R117G/L118Y) above, with S86A, P112E, K113G, T115E, G117R, Y118L counted along it

Structure (SMILES)	IC50 [1] [nM]	IC50 [2] [nM]	IC50 (P2X7R point mutant K306C) [nM]	IC50 [3] [nM]	IC50 [4] [nM]	IC50 (P2X7R point mutant S86A) [nM]	IC50 (P2X7R point mutant D92A) [nM]	IC50 (P2X7R point mutant K110Y) [nM]	effect on antagonist sensitivity relative to P2X7-2Nβ ([2]; chimera 210–217)	effect on antagonist potency relative to P2X7-2Nβ ([4]; chimera 81–88)	effect on antagonist sensitivity relative to P2X7-2Nβ (P2X7R point mutant K110Y; K110Y)
Cl.Clc1cccc(-c2nnnn2Cc2cccnc2)c1Cl.O [A438079, 3-(5-(2,3-dichlorophenyl)-1H-tetrazol-1-yl)methyl pyridine hydrochloride hydrate]	10000	251	1580	3160	1000	1000	> 100000	794	–	–	–
COc1ccc(CC(=O)NC(N=C(NC#N)Nc2cccc3ncccc23)C(C)(C)C)cc1OC (stereo not shown) [A740003, N-[1-[[(cyanoamino)(5-quinolinylamino)methylene]amino]-2,2-dimethylpropyl]-3,4-dimethoxybenzeneacetamide]	501	79.4	316	251	79.4	79.4	7940	100	unaffected	no effect	no effect
